Tests used:
[1] = Sensory evaluation of aqueous solution I containing (E)-2-nonenal 1 ppb: off-flavor intensity and masking component intensity; conditions: (E)-2-nonenal 1 ppb, average score 0-4
Outline: (§1)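 Eight trained panelists tasted water solutions of the off-flavor compounds spiked with nootkatone. Masking-agent taste was scored absolutely from 0 (not sensed) to 4 (strong). Off-flavor was scored relatively, anchored at 4 for the solution without masker and 0 for ion-exchanged water.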

[2] = Sensory evaluation of aqueous solution II containing (E)-2-octenal 10 ppb: off-flavor intensity and masking component intensity; conditions: (E)-2-octenal 10 ppb, average score 0-4
Outline: as §1

[3] = Sensory evaluation of aqueous solution III containing 1-octen-3-one 1 ppb: off-flavor intensity and masking component intensity; conditions: 1-octen-3-one 1 ppb, average score 0-4
Outline: as §1

[4] = Sensory evaluation of aqueous solution IV containing 1,5-octadien-3-one 100 ppt: off-flavor intensity and masking component intensity; conditions: aqueous solution IV, 1,5-octadien-3-one 100 ppt, average score 0-4
Outline: as §1

[5] = Sensory evaluation of aqueous solution V containing 1-octen-3-ol 10 ppb: off-flavor intensity and masking component intensity; conditions: 1-octen-3-ol 10 ppb, average score 0-4
Outline: as §1

[6] = Sensory evaluation of aqueous solution VI containing 1,5-octadien-3-ol 10 ppb: off-flavor intensity and masking component intensity; conditions: aqueous solution VI, 1,5-octadien-3-ol 10 ppb, average score 0-4
Outline: as §1

[7] = Overall conclusion of the sensory evaluation across aqueous solutions I to VI
Outline: as §1

Compound: CC(=O)/C=C/C1=C(C)CCCC1(C)C [β-Ionone, β-ionone]
- Off-Flavor Intensity ([1]; 0.01 ppt added): 3.4 points
- Off-Flavor Intensity ([1]; 0.1 ppt added): 3.1 points
- Off-Flavor Intensity ([1]; 1 ppb added): 1.8 points
- Off-Flavor Intensity ([1]; 1 ppm added): 0.5 points
- Off-Flavor Intensity ([1]; 1 ppt added): 2.6 points
- Off-Flavor Intensity ([1]; 10 ppb added): 1.4 points
- Off-Flavor Intensity ([1]; 10 ppt added): 2.6 points
- Off-Flavor Intensity ([1]; 100 ppb added): 0.8 points
- Off-Flavor Intensity ([1]; 100 ppt added): 2.3 points
- Off-Flavor Intensity ([2]; 0.01 ppt added): 3.1 points
- Off-Flavor Intensity ([2]; 0.1 ppt added): 3.0 points
- Off-Flavor Intensity ([2]; 1 ppb added): 1.6 points
- Off-Flavor Intensity ([2]; 1 ppm added): 0.1 points
- Off-Flavor Intensity ([2]; 1 ppt added): 2.6 points
- Off-Flavor Intensity ([2]; 10 ppb added): 1.4 points
- Off-Flavor Intensity ([2]; 10 ppt added): 2.3 points
- Off-Flavor Intensity ([2]; 100 ppb added): 0.8 points
- Off-Flavor Intensity ([2]; 100 ppt added): 2.0 points
- Off-Flavor Intensity ([3]; 0.01 ppt added): 3.5 points
- Off-Flavor Intensity ([3]; 0.1 ppt added): 3.3 points
- Off-Flavor Intensity ([3]; 1 ppb added): 2.0 points
- Off-Flavor Intensity ([3]; 1 ppm added): 0.8 points
- Off-Flavor Intensity ([3]; 1 ppt added): 3.0 points
- Off-Flavor Intensity ([3]; 10 ppb added): 1.6 points
- Off-Flavor Intensity ([3]; 10 ppt added): 2.8 points
- Off-Flavor Intensity ([3]; 100 ppb added): 1.4 points
- Off-Flavor Intensity ([3]; 100 ppt added): 2.5 points
- Off-Flavor Intensity ([4]; 0.01 ppt added): 3.8 points
- Off-Flavor Intensity ([4]; 0.1 ppt added): 3.5 points
- Off-Flavor Intensity ([4]; 1 ppb added): 2.5 points
- Off-Flavor Intensity ([4]; 1 ppm added): 1.0 points
- Off-Flavor Intensity ([4]; 1 ppt added): 3.5 points
- Off-Flavor Intensity ([4]; 10 ppb added): 2.3 points
- Off-Flavor Intensity ([4]; 10 ppt added): 3.4 points
- Off-Flavor Intensity ([4]; 100 ppb added): 1.6 points
- Off-Flavor Intensity ([4]; 100 ppt added): 3.0 points
- Off-Flavor Intensity ([5]; 0.01 ppt added): 3.3 points
- Off-Flavor Intensity ([5]; 0.1 ppt added): 3.0 points
- Off-Flavor Intensity ([5]; 1 ppb added): 1.8 points
- Off-Flavor Intensity ([5]; 1 ppm added): 0.3 points
- Off-Flavor Intensity ([5]; 1 ppt added): 2.5 points
- Off-Flavor Intensity ([5]; 10 ppb added): 1.4 points
- Off-Flavor Intensity ([5]; 10 ppt added): 2.5 points
- Off-Flavor Intensity ([5]; 100 ppb added): 0.8 points
- Off-Flavor Intensity ([5]; 100 ppt added): 2.3 points
- Off-Flavor Intensity ([6]; 0.01 ppt added): 3.3 points
- Off-Flavor Intensity ([6]; 0.1 ppt added): 2.9 points
- Off-Flavor Intensity ([6]; 1 ppb added): 1.8 points
- Off-Flavor Intensity ([6]; 1 ppm added): 0.4 points
- Off-Flavor Intensity ([6]; 1 ppt added): 2.6 points
- Off-Flavor Intensity ([6]; 10 ppb added): 1.5 points
- Off-Flavor Intensity ([6]; 10 ppt added): 2.3 points
- Off-Flavor Intensity ([6]; 100 ppb added): 0.8 points
- Off-Flavor Intensity ([6]; 100 ppt added): 2.1 points
- concentration that masks the off-flavor and does not affect the flavor of the food and/or beverage itself, lower limit [7]: ≥ 0.1 ppt
- concentration that masks the off-flavor and does not affect the flavor of the food and/or beverage itself, upper limit [7]: ≤ 100 ppb

Source: patent US20250176599A1, “FLAVOR COMPOSITION AND FOOD AND BEVERAGE” (TAKASAGO INTERNATIONAL CORPORATION, priority 2021, published 2025)
